For one assay, the system named is ALOMY. The assay can be described thus: Pre-emergence herbicidal action against ALOMY. Type of assay: in vivo, Alopecurus myosuroides. Particulars: Alopecurus myosuroides, pre-emergence, 504 h; for pest or weed control at 80 g/ha: scored visually after 3 weeks vs untreated controls (100% = plants have died, 0% = like control plants). The method in brief: (§1)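 Visual rating at 3 weeks vs untreated pots; 0–100% scale, 100% = plants died. Treatment: aqueous WP/EC spray onto covering soil, 600–800 l/ha, 0.2% wetter, seeds in sandy loam.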

The test system of the next assay is AMARE. The assay can be described thus: Pre-emergence herbicidal action against AMARE. Type of assay: in vivo, Amaranthus retroflexus. The following applies: Amaranthus retroflexus, 504 h, 100% = plants have died, 0% = like control plants; for pest or weed control at 80 g/ha / pest or weed control at 20 g/ha: scored visually after 3 weeks vs untreated controls; for pest or weed control at 320 g/ha: scored visually after 3 weeks. Summed up: as §1

For a further assay, the system named is SETVI. Nature of the assay: Pre-emergence herbicidal action against SETVI. The class given is in vivo, Setaria viridis. Particulars: Setaria viridis, 504 h; for pest or weed control at 80 g/ha: dosage 80 g/ha; for pest or weed control at 320 g/ha: dosage 320 g/ha; for pest or weed control at 20 g/ha: dosage 20 g/ha. The method in brief: as §1
The next assay has as its system VIOTR. Nature of the assay: Pre-emergence herbicidal action against VIOTR. The class given is in vivo, Viola tricolor. The following applies: Viola tricolor, 504 h; for pest or weed control at 80 g/ha: dosage 80 g/ha; for pest or weed control at 320 g/ha: dosage 320 g/ha; for pest or weed control at 20 g/ha: dosage 20 g/ha. The method in brief:
as §1

Assay [1] relates to DIGSA. The assay can be described thus: Pre-emergence herbicidal action against DIGSA. Type of assay: in vivo, Digitaria sanguinalis. Particulars: Digitaria sanguinalis, 504 h; for pest or weed control at 80 g/ha: dosage 80 g/ha; for pest or weed control at 320 g/ha: dosage 320 g/ha; for pest or weed control at 20 g/ha: dosage 20 g/ha. Summed up: as §1
Assay [2] has as its system DIGSA. Nature of the assay: Post-emergence herbicidal action against DIGSA. Type of assay: in vivo, Digitaria sanguinalis. The following applies: Digitaria sanguinalis, 504 h. The method in brief: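 Greenhouse pot plants in sandy loam were sprayed at the one-leaf stage, 2 to 3 weeks after sowing, with WP or EC formulations as aqueous suspension or emulsion (600 to 800 l/ha water, 0.2% wetting agent). About 3 weeks later, damage was scored visually against untreated controls as % action (100% = dead, 0% = like control).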

In another assay the test system is harmful plants. The assay can be described thus: Comparative experiments: herbicidal pre-emergence action versus compounds known from D1 (WO 2012/028579 A1). The following applies: 80 g a.i./ha. On the set-up: key to Herbicidal action against ALOMY / Herbicidal action against AVEFA / Herbicidal action against SETVI / Herbicidal action against AMARE / Herbicidal action against STEME / Herbicidal action against VIOTR / Herbicidal action against HORMU / Herbicidal action against MATIN / Herbicidal action against ABUTH: % herbicidal activity: 0 = like control, 100 = plants died. The class given is in vivo. From the text: Seeds of monocotyledonous and dicotyledonous weed plants and crop plants are laid out in sandy loam soil in wood-fiber pots and covered with soil. The compounds of the invention, formulated in the form of wettable powders (WP) or as emulsion concentrates (EC), are then applied to the surface of the covering soil in the form of an aqueous suspension or emulsion at a water application rate equivalent to 600 to 800 l/ha, with addition of 0.2% wetting agent. After the treatment, the pots are placed in a greenhouse and kept under good growth conditions for the trial plants. The damage to the test plants is scored visually after a test period of 3 weeks by comparison with untreated controls (herbicidal activity in percent (%): 100% activity=the plants have died, 0% activity=like control plants). […] The tables below illustrate, in an illustrative manner, the post-emergence herbicidal action of the compounds of the invention, the herbicidal activity being stated in percent. In the experiments that follow, herbicidal action of numerous inventive compounds and the structurally closest compounds known from D1 (WO 2012/028579 A1) were compared under the above-specified conditions by the pre-emergence and post-emergence method. The example numbers given in the tables relate to the compounds disclosed in the respective documents.

The test system of the next assay is PHBPU. Nature of the assay: Pre-emergence herbicidal action against PHBPU. The class given is in vivo, Pharbitis purpurea. The following applies: Ipomoea purpurea, 504 h; for pest or weed control at 80 g/ha: dosage 80 g/ha. The method in brief: as §1
Setting [3] is: scored visually after 3 weeks, 100% = plants have died, 0% = like control plants.

As a reminder, the pest or weed control is how far the test organism was held down. `CCNC(=O)c1c(C(F)(F)F)ccc(C(=O)Nc2nnnn2CC)c1SC` [Example 2-82]: the pest or weed control at 320 g/ha with ALOMY (setting [3]), in the assay with AMARE, in the assay with SETVI, in the assay on VIOTR and in the assay on DIGSA [1] was 100% in each case. Moreover, the pest or weed control at 80 g/ha in the assay on AMARE came to 100%; with SETVI, 100%; in the assay with VIOTR, 100%; in the assay on DIGSA [1], 100%; with DIGSA [2], 90%. The same compound registered a pest or weed control at 20 g/ha in the assay on DIGSA [2] of 90%.

For the compound `CCNC(=O)c1c(C(F)F)ccc(C(=O)Nc2nnnn2C)c1Cl` [Example 1-148], the pest or weed control at 80 g/ha with ALOMY came to 90%; in the assay with AMARE it was 100%; in the assay on SETVI, 100%; in the assay on VIOTR it was 100%; in the assay with DIGSA [1], 100%; in the assay on DIGSA [2], 90%. Moreover, the pest or weed control at 320 g/ha in the assay on ALOMY (setting [3]), with AMARE, in the assay on SETVI, with VIOTR and in the assay with DIGSA [1] was 100% each time. Further, the pest or weed control at 20 g/ha in the assay with DIGSA [2] was 90%.

As to `CNC(=O)c1c(C(F)F)ccc(C(=O)Nc2nnnn2C)c1Cl` [Example 1-147], the pest or weed control at 80 g/ha was 90% in the assay on ALOMY; 100% with AMARE; 100% in the assay on SETVI; 100% in the assay with VIOTR; 100% with DIGSA [1]; 90% in the assay on DIGSA [2]. For the same compound, the pest or weed control at 320 g/ha in the assay on ALOMY (setting [3]), in the assay on AMARE, with SETVI, in the assay on VIOTR and with DIGSA [1] was 100% in each case. In the assay with DIGSA [2], the pest or weed control at 20 g/ha amounted to 90%. In addition, the “Herbicidal action against ALOMY” value in the assay on harmful plants (ALOMY) came to 90. Moreover, the “Herbicidal action against AMARE” value in the assay on harmful plants (AMARE) amounted to 100. For the same compound, the “Herbicidal action against AVEFA” value in the assay on harmful plants (AVEFA) is listed as 100. The “Herbicidal action against SETVI” value in the assay with harmful plants (SETVI) is given as 100. The “Herbicidal action against STEME” value with harmful plants (STEME) worked out at 100. For the same compound, the “Herbicidal action against VIOTR” value in the assay on harmful plants (VIOTR) worked out at 100.

Regarding `CCn1nnnc1NC(=O)c1ccc(Cl)c(C(=O)NC2CC2)c1Cl` [Example 2-173], the pest or weed control at 80 g/ha in the assay on ALOMY stood at 100%; in the assay with AMARE, 100%; in the assay on PHBPU, 90%; in the assay with SETVI, 100%; in the assay on VIOTR, 100%; in the assay with DIGSA [1] it was 100%. The pest or weed control at 20 g/ha in the assay with ALOMY (20 g/ha, scored visually after 3 weeks, 100% = plants have died, 0% = like control plants) turned out to be 100%; with AMARE it was 100%; in the assay on DIGSA [1] it was 100%; in the assay on DIGSA [2], 80%.

As for `CCn1nnnc1NC(=O)c1ccc(C(F)(F)F)c(C(=O)NC)c1SC` [Example 2-81], the pest or weed control at 320 g/ha in the assay on ALOMY (setting [3]) stood at 90%; with AMARE, 100%; in the assay on SETVI, 100%; in the assay with VIOTR, 100%; in the assay with DIGSA [1], 100%. For the same compound, the pest or weed control at 80 g/ha came out at 100% in the assay on AMARE; 100% in the assay with SETVI; 90% with VIOTR; 100% in the assay on DIGSA [1]; 90% in the assay with DIGSA [2]. This compound yielded a pest or weed control at 20 g/ha in the assay with DIGSA [2] of 90%.

In the case of `CCNC(=O)c1c(C(F)F)ccc(C(=O)Nc2nnnn2CC)c1Cl` [Example 2-148], the pest or weed control at 80 g/ha in the assay on ALOMY is 90%; with AMARE it was 100%; in the assay with SETVI it was 100%; in the assay on VIOTR, 100%; with DIGSA [1], 100%; with DIGSA [2], 90%. The pest or weed control at 320 g/ha in the assay with ALOMY (setting [3]), in the assay on AMARE, in the assay with SETVI, with VIOTR and in the assay with DIGSA [1] was 100% in each case. This compound returned a pest or weed control at 20 g/ha with DIGSA [2] of 90%.

Take `CNC(=O)c1c(C(F)(F)F)ccc(C(=O)Nc2nnnn2C)c1SC` [Example 1-81]: the pest or weed control at 80 g/ha with ALOMY stood at 80%; with AMARE it was 100%; with SETVI it was 100%; with VIOTR it was 90%; in the assay with DIGSA [1], 100%; in the assay with DIGSA [2], 90%. For the same compound, the pest or weed control at 320 g/ha in the assay with ALOMY (setting [3]), in the assay on AMARE, in the assay with SETVI, with VIOTR and in the assay on DIGSA [1] was 100% each time. In the assay on DIGSA [2], this compound displayed a pest or weed control at 20 g/ha of 80%.

With `CCn1nnnc1NC(=O)c1ccc(C(F)(F)F)c(C(=O)NC(C)=O)c1Cl` [Example 2-337], the pest or weed control at 80 g/ha came to 90% in the assay on ALOMY; 100% in the assay with AMARE; 100% in the assay on SETVI; 100% in the assay on VIOTR; 100% in the assay with DIGSA [1]; 90% in the assay on DIGSA [2]. In addition, the pest or weed control at 320 g/ha is 100% with ALOMY (setting [3]); 100% in the assay on AMARE; 90% in the assay on PHBPU (dosage 320 g/ha); 100% with SETVI; 100% with VIOTR; 100% in the assay on DIGSA [1]. Moreover, the pest or weed control at 20 g/ha with AMARE, with SETVI, in the assay on VIOTR and in the assay with DIGSA [1] was 90% in each case.

Consider `CCc1c(C(=O)Nc2nnnn2C)ccc(C(F)(F)F)c1C(=O)NC1CC1` [Example 1-273], for which the pest or weed control at 80 g/ha stood at 90% in the assay on ALOMY; 100% in the assay with AMARE; 100% in the assay with PHBPU; 100% in the assay on SETVI; 100% in the assay on VIOTR; 100% in the assay with DIGSA [1]. The pest or weed control at 20 g/ha in the assay on AMARE was found to be 100%; with SETVI, 100%; in the assay with VIOTR, 100%; in the assay with DIGSA [1] it was 100%; with DIGSA [2], 90%. This compound also registered a pest or weed control at 5 g/ha with DIGSA [2] of 90%.

As for `CCn1nnnc1NC(=O)c1ccc(C(F)(F)F)c(C(=O)NC2CC2)c1C` [Example 2-27], the pest or weed control at 80 g/ha with ALOMY turned out to be 100%; in the assay on AMARE, 100%; with PHBPU, 90%; in the assay on SETVI, 100%; with VIOTR, 100%; in the assay on DIGSA [1] it was 100%. The pest or weed control at 20 g/ha stood at 100% in the assay with AMARE; 80% in the assay on PHBPU (dosage 20 g/ha); 100% in the assay with VIOTR; 100% in the assay with DIGSA [1]; 100% in the assay with DIGSA [2]. In the assay with DIGSA [2], this compound displayed a pest or weed control at 5 g/ha of 100%.
